Target: T1, TRAP1 enzyme (Homo sapiens, UniProt Q12931)
T1 construct: 150 nM Trap1 enzyme was incubated with various concentrations of the test compound
T1 sequence (Q12931 60-704): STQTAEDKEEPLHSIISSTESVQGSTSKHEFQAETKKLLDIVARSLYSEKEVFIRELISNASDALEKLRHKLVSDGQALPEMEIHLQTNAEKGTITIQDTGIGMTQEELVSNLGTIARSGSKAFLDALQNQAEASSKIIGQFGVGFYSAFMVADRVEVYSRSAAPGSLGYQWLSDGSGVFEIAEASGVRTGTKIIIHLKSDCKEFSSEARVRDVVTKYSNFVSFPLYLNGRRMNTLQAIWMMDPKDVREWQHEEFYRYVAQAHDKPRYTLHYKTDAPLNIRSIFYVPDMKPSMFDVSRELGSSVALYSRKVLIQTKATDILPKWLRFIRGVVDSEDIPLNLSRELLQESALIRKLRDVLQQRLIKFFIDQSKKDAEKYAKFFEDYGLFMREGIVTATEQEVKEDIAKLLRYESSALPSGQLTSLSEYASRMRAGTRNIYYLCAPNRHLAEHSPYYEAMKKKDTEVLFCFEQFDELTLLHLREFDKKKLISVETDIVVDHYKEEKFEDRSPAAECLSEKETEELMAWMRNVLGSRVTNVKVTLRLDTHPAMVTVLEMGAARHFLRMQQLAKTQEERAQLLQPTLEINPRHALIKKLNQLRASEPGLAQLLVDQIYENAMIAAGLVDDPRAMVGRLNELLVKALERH
Experiment: ADP Glo assay of TRAP1 ATPase activity
Type: biochemical
Conditions: for EC50: concentration for half maximal activation, read-out: ADP GLO DRC: GeoMean EC50; for Emax: maximal percent activation, read-out: ADP GLO DRC: Mean Emax
Description: Potency of test compounds to modulate the ATPase activity of TRAP1 enzyme was evaluated using ADP Glo assay. The assay is based on quantification of the ADP generated from ATP in the ATPase reaction. The assay is performed in two steps; first, after the ATPase reaction an equal volume of ADP-Glo™ Reagent is added to terminate the ATPase reaction and deplete the remaining ATP. Second, the Kinase Detection Reagent is added to simultaneously convert ADP to ATP and allow the newly synthesized ATP to be measured using a luciferase/luciferin reaction.
All the assays were carried out in a 384-well Proxiplate. The buffer used was 25 mM Pipes pH-7.5, 40 mM KCl, 0.05 mM MgCl2, 0.025% BSA, 0.316 mM EGTA, 0.003% Empigen, 0.01% Igepal. 150 nM Trap1 enzyme was incubated with various concentrations of the test compound (0.79 μM-100 μM) at 37° C. for 30 mins (except in blank wells). 20 μM ATP was added to each well to start the reaction. The plate was spun for 1 min at 1200 rpm and then incubated at 37° C. for 60 mins. 5 μl of ADP Glo reagent was added to all the wells and spun the plate for 1 min at 1200 rpm and kept it on a shaker at ambient temperature for 60 mins. 10 μl of kinase detection mix was added to all the wells and the plate was read for Luminescence at 495 nm. The amount of ADP released was estimated from ATP/ADP standard curve generated at the same experimental conditions. Emax (Maximal percent activation) and EC50 (concentration for half maximal activation) were estimated by fitting the dose response data to a sigmoidal curve fitting equation using Graphpad Prism software V. 8.

| Compound | EC50 | Emax |
| --- | --- | --- |
| COc1ncc(NC(=O)c2noc3c2CCCC3)cc1S(=O)(=O)Nc1ccc(Cl)cc1 [compound 1194, N-(5-(N-(4-chlorophenyl)sulfamoyl)-6-methoxypyridin-3-yl)-4,5,6,7-tetrahydrobenzo[d]isoxazole-3-carboxamide] | 20 to 100 µM | 119 to 159% |
| COc1ncc(NC(=O)c2ncccc2C(=O)c2ccccc2)cc1S(=O)(=O)Nc1ccc(Cl)cc1 [compound 1195, 3-benzoyl-N-(5-(N-(4-chlorophenyl)sulfamoyl)-6-methoxypyridin-3-yl)picolinamide] | 10 to 20 µM | 160 to 199% |
| COc1ncc(NC(=O)c2ccccc2C(=O)c2ccccc2)cc1S(=O)(=O)Nc1ccc(Cl)cc1 [compound 1197, 2-benzoyl-N-(5-(N-(4-chlorophenyl)sulfamoyl)-6-methoxypyridin-3-yl)benzamide] | < 10 µM | 160 to 199% |
| COc1ncc(NC(=O)c2ccc3nccnc3c2)cc1S(=O)(=O)Nc1ccc(Cl)cc1 [compound 1198, N-(5-(N-(4-chlorophenyl)sulfamoyl)-6-methoxypyridin-3-yl) quinoxaline-6-carboxamide] | 10 to 20 µM | 160 to 199% |
| COc1ncc(NC(=O)c2cc(-n3ccnc3)ccn2)cc1S(=O)(=O)Nc1ccc(Cl)cc1 [compound 1203, N-(5-(N-(4-chlorophenyl)sulfamoyl)-6-methoxypyridin-3-yl)-4-(1H-imidazol-1-yl)picolinamide] | 10 to 20 µM | 160 to 199% |
| COc1ncc(NC(=O)c2cccc(-n3cncn3)c2)cc1S(=O)(=O)Nc1ccc(Cl)cc1 [compound 1204, N-(5-(N-(4-chlorophenyl)sulfamoyl)-6-methoxypyridin-3-yl)-3-(1H-1,2,4-triazol-1-yl)benzamide] | 10 to 20 µM | 160 to 199% |
| COc1ncc(NC(=O)C(C)n2cc(Br)cn2)cc1S(=O)(=O)Nc1ccc(Cl)cc1 (centres unmarked) [compound 1213, (4-bromo-1H-pyrazol-1-yl)-N-(5-(N-(4-chlorophenyl)sulfamoyl)-6-methoxypyridin-3-yl)propanamide] | 20 to 100 µM | 119 to 159% |
| Cc1ncoc1C(=O)Nc1cc(S(=O)(=O)Nc2ccc(Cl)cc2)cc[n+]1[O-] [compound 1294, 4-(N-(4-chlorophenyl)sulfamoyl)-2-(4-methyloxazole-5-carboxamido)pyridine 1-oxide] | 20 to 100 µM | 119 to 159% |
| COc1ncc(NC(=O)c2ncc(-c3ccccc3)o2)cc1S(=O)(=O)Nc1c(Cl)cccc1C(F)(F)F [compound 1303, N-(5-(N-(2-chloro-6-(trifluoromethyl)phenyl)sulfamoyl)-6-methoxypyridin-3-yl)-5-phenyloxazole-2-carboxamide] | 10 to 20 µM | 160 to 199% |
| COc1ncc(NC(=O)c2coc(-c3ccccc3)n2)cc1S(=O)(=O)Nc1c(C)cccc1C [compound 1312, N-(5-(N-(2,6-dimethylphenyl)sulfamoyl)-6-methoxypyridin-3-yl)-2-phenyloxazole-4-carboxamide] | < 10 µM | 200 to 300% |
| O=C(Nc1cc(S(=O)(=O)Nc2ccc(Cl)cc2)cc[n+]1[O-])c1cnc(-c2ccccc2)[nH]1 [compound 1321, 4-(N-(4-chlorophenyl)sulfamoyl)-2-(2-phenyl-1H-imidazole-5-carboxamido) pyridine 1-oxide] | 10 to 20 µM | 160 to 199% |
| COc1ncc(NC(=O)c2csc(-c3ccccc3)n2)cc1S(=O)(=O)Nc1ccccc1C [compound 1350, N-(6-methoxy-5-(N-(o-tolyl)sulfamoyl)pyridin-3-yl)-2-phenylthiazole-4-carboxamide] | < 10 µM | 119 to 159% |
| COc1ncc(NC(=O)c2csc(-c3ccncc3)n2)cc1S(=O)(=O)Nc1c(C)cccc1C [compound 1351, N-(5-(N-(2,6-dimethylphenyl)sulfamoyl)-6-methoxypyridin-3-yl)-2-(pyridin-4-yl)thiazole-4-carboxamide] | 10 to 20 µM | 119 to 159% |
